Test results taken from the NIST ThermoML archive (doi:10.1021/je800110r).
Numbers after ± are expanded uncertainties.

Details: 283.15 K, Liquid, Vibrating tube method

CCCCCCCCCC [decane]
mass density (11428 kPa): 745.5 ± 2 kg/m3 | mass density (11443 kPa): 745.5 ± 2 kg/m3 | mass density (11462 kPa): 745.5 ± 2 kg/m3 | mass density (11483 kPa): 745.5 ± 2 kg/m3 | mass density (11498 kPa): 745.5 ± 2 kg/m3 | mass density (11518 kPa): 745.4 ± 2 kg/m3 | mass density (11530 kPa): 745.6 ± 2 kg/m3 | mass density (11543 kPa): 745.5 ± 2 kg/m3 | mass density (11625 kPa): 745.7 ± 2 kg/m3 | mass density (11647 kPa): 745.7 ± 2 kg/m3 | mass density (11663 kPa): 745.7 ± 2 kg/m3 | mass density (11681 kPa): 745.6 ± 2 kg/m3 | mass density (11774 kPa): 745.8 ± 2 kg/m3 | mass density (11790 kPa): 745.8 ± 2 kg/m3 | mass density (11806 kPa): 745.8 ± 2 kg/m3 | mass density (11824 kPa): 745.8 ± 2 kg/m3 | mass density (11838 kPa): 745.7 ± 2 kg/m3 | mass density (11856 kPa): 745.8 ± 2 kg/m3 | mass density (11876 kPa): 745.9 ± 2 kg/m3 | mass density (11889 kPa): 745.8 ± 2 kg/m3 | mass density (11904 kPa): 745.8 ± 2 kg/m3 | mass density (11924 kPa): 745.9 ± 2 kg/m3 | mass density (11943 kPa): 745.8 ± 2 kg/m3 | mass density (11954 kPa): 745.8 ± 2 kg/m3 | mass density (11969 kPa): 745.9 ± 2 kg/m3 | mass density (11982 kPa): 746 ± 2 kg/m3 | mass density (11997 kPa): 745.9 ± 2 kg/m3 | mass density (12010 kPa): 746 ± 2 kg/m3 | mass density (12024 kPa): 745.9 ± 2 kg/m3 | mass density (12038 kPa): 746 ± 2 kg/m3 | mass density (12052 kPa): 745.9 ± 2 kg/m3 | mass density (12068 kPa): 745.9 ± 2 kg/m3 | mass density (12080 kPa): 746 ± 2 kg/m3 | mass density (12094 kPa): 745.9 ± 2 kg/m3 | mass density (12108 kPa): 746 ± 2 kg/m3 | mass density (12130 kPa): 746 ± 2 kg/m3 | mass density (12149 kPa): 746 ± 2 kg/m3 | mass density (12165 kPa): 745.9 ± 2 kg/m3 | mass density (12180 kPa): 746.1 ± 2 kg/m3 | mass density (12197 kPa): 746 ± 2 kg/m3 | mass density (12211 kPa): 746 ± 2 kg/m3 | mass density (12226 kPa): 746 ± 2 kg/m3 | mass density (12241 kPa): 745.9 ± 2 kg/m3 | mass density (12262 kPa): 746.1 ± 2 kg/m3 | mass density (12280 kPa): 746.1 ± 2 kg/m3 | mass density (12300 kPa): 746 ± 2 kg/m3 | mass density (12319 kPa): 746.1 ± 2 kg/m3 | mass density (12339 kPa): 746.1 ± 2 kg/m3 | mass density (12356 kPa): 746.1 ± 2 kg/m3 | mass density (12371 kPa): 746.1 ± 2 kg/m3 | mass density (12386 kPa): 746.2 ± 2 kg/m3 | mass density (12401 kPa): 746.1 ± 2 kg/m3 | mass density (12415 kPa): 746.2 ± 2 kg/m3 | mass density (12431 kPa): 746.2 ± 2 kg/m3 | mass density (12451 kPa): 746.3 ± 2 kg/m3 | mass density (12469 kPa): 746.2 ± 2 kg/m3 | mass density (12484 kPa): 746.2 ± 2 kg/m3 | mass density (12505 kPa): 746.2 ± 2 kg/m3 | mass density (12519 kPa): 746.2 ± 2 kg/m3 | mass density (12535 kPa): 746.3 ± 2 kg/m3 | mass density (12550 kPa): 746.3 ± 2 kg/m3 | mass density (12571 kPa): 746.3 ± 2 kg/m3 | mass density (12588 kPa): 746.3 ± 2 kg/m3 | mass density (12602 kPa): 746.3 ± 2 kg/m3 | mass density (12618 kPa): 746.3 ± 2 kg/m3 | mass density (12633 kPa): 746.3 ± 2 kg/m3 | mass density (12649 kPa): 746.3 ± 2 kg/m3 | mass density (12665 kPa): 746.3 ± 2 kg/m3 | mass density (12678 kPa): 746.3 ± 2 kg/m3 | mass density (12693 kPa): 746.4 ± 2 kg/m3 | mass density (12709 kPa): 746.4 ± 2 kg/m3 | mass density (12725 kPa): 746.3 ± 2 kg/m3 | mass density (12741 kPa): 746.3 ± 2 kg/m3 | mass density (12756 kPa): 746.4 ± 2 kg/m3 | mass density (12772 kPa): 746.5 ± 2 kg/m3 | mass density (12794 kPa): 746.4 ± 2 kg/m3 | mass density (12812 kPa): 746.3 ± 2 kg/m3 | mass density (12837 kPa): 746.4 ± 2 kg/m3 | mass density (12855 kPa): 746.5 ± 2 kg/m3 | mass density (12877 kPa): 746.5 ± 2 kg/m3 | mass density (12895 kPa): 746.6 ± 2 kg/m3 | mass density (12914 kPa): 746.5 ± 2 kg/m3 | mass density (12933 kPa): 746.5 ± 2 kg/m3 | mass density (12955 kPa): 746.4 ± 2 kg/m3 | mass density (12972 kPa): 746.5 ± 2 kg/m3 | mass density (12994 kPa): 746.6 ± 2 kg/m3 | mass density (13013 kPa): 746.5 ± 2 kg/m3 | mass density (13033 kPa): 746.5 ± 2 kg/m3 | mass density (13052 kPa): 746.5 ± 2 kg/m3 | mass density (13075 kPa): 746.5 ± 2 kg/m3 | mass density (13095 kPa): 746.6 ± 2 kg/m3 | mass density (13117 kPa): 746.6 ± 2 kg/m3 | mass density (13316 kPa): 746.8 ± 2 kg/m3 | mass density (13337 kPa): 746.7 ± 2 kg/m3 | mass density (13598 kPa): 746.9 ± 2 kg/m3 | mass density (13632 kPa): 746.9 ± 2 kg/m3 | mass density (13652 kPa): 747 ± 2 kg/m3 | mass density (13673 kPa): 747 ± 2 kg/m3 | mass density (13697 kPa): 746.9 ± 2 kg/m3 | mass density (13715 kPa): 747 ± 2 kg/m3 | mass density (13740 kPa): 747 ± 2 kg/m3 | mass density (13765 kPa): 747.1 ± 2 kg/m3 | mass density (13787 kPa): 747.1 ± 2 kg/m3 | mass density (13809 kPa): 747 ± 2 kg/m3 | mass density (13831 kPa): 747.1 ± 2 kg/m3 | mass density (13856 kPa): 747 ± 2 kg/m3 | mass density (13875 kPa): 747.2 ± 2 kg/m3 | mass density (13901 kPa): 747.1 ± 2 kg/m3 | mass density (13923 kPa): 747.1 ± 2 kg/m3 | mass density (13949 kPa): 747.1 ± 2 kg/m3 | mass density (13968 kPa): 747.2 ± 2 kg/m3 | mass density (13994 kPa): 747.2 ± 2 kg/m3 | mass density (14017 kPa): 747.2 ± 2 kg/m3 | mass density (14039 kPa): 747.2 ± 2 kg/m3 | mass density (14062 kPa): 747.3 ± 2 kg/m3 | mass density (14088 kPa): 747.2 ± 2 kg/m3 | mass density (14138 kPa): 747.2 ± 2 kg/m3 | mass density (14164 kPa): 747.3 ± 2 kg/m3 | mass density (14191 kPa): 747.4 ± 2 kg/m3 | mass density (14216 kPa): 747.4 ± 2 kg/m3 | mass density (14359 kPa): 747.4 ± 2 kg/m3 | mass density (14385 kPa): 747.5 ± 2 kg/m3 | mass density (14411 kPa): 747.4 ± 2 kg/m3 | mass density (14428 kPa): 747.6 ± 2 kg/m3 | mass density (14446 kPa): 747.5 ± 2 kg/m3 | mass density (14481 kPa): 747.5 ± 2 kg/m3 | mass density (14499 kPa): 747.5 ± 2 kg/m3 | mass density (14528 kPa): 747.6 ± 2 kg/m3 | mass density (14543 kPa): 747.6 ± 2 kg/m3 | mass density (14563 kPa): 747.5 ± 2 kg/m3 | mass density (14578 kPa): 747.6 ± 2 kg/m3 | mass density (14599 kPa): 747.6 ± 2 kg/m3 | mass density (14614 kPa): 747.6 ± 2 kg/m3 | mass density (14632 kPa): 747.6 ± 2 kg/m3 | mass density (14650 kPa): 747.6 ± 2 kg/m3 | mass density (14668 kPa): 747.7 ± 2 kg/m3 | mass density (14686 kPa): 747.7 ± 2 kg/m3
